# Assay results as given in paper PMC10611442, “Amelogenin Peptide-Chitosan Hydrogel for Biomimetic Enamel Regrowth” (Frontiers in dental medicine, 2021).
# Assay: Nanoindentation (hardness and elastic modulus) of remineralized enamel sections
# Design: species or system human
# Conditions: demineralization 2 h pH 4.6; 7-day mineralization cycle in artificial saliva, daily application, hydrogels 0.2 mg/ml; mean ± SD
# Experimental: To enhance the mechanical responses, the remineralization cycle was optimized and extended to 7 days. After demineralization, each tooth setting (comprising 3 or 4 teeth sections) was placed into separate cylindrical containers containing remineralization solution (30 ml, pH 7, RT) for 1 week. Experimental groups included healthy enamel, demineralized enamel, control (900 ppm F^−; 0.2% NaF), P26-CS and P32-CS (n = 3 per group).
# Every 24 h after the start of the remineralization cycle, 30 μL of NaF solution (900 ppm F^−; 0.2% NaF) was added on top of each tooth for 10 min per day. The teeth were gently rinsed in distilled water and dried. A fresh 20 μl treatment application (P26-CS and P32-CS) was made to each window, followed by air drying for 15 min at RT and then the samples were returned to the fresh stock of remineralization solution. The remineralization solution and peptide were replaced daily. After 1 week of daily treatment application, the slices were sonicated, rinsed, dried, and stored in distilled water at 4°C for nanoindentation. The hardness and elastic modulus of the peptide-mediated mineralized layers were evaluated by nanoindentation tests. The device was calibrated to examine the mechanical properties of the remineralized HAP layers on teeth slices at the nanoscale. […]
smiles,measurement,value
"[F-].[Na+] [0.2% NaF, NaF]",elastic modulus of regrown enamel (nanoindentation),40.57 ± 15.8 GPa
same,hardness of regrown enamel (nanoindentation),1.3 ± 0.6 GPa
